Measurements reported in ChEMBL document CHEMBL1154622, “Structure-guided design of potent and selective pyrimidylpyrrole inhibitors of extracellular signal-regulated kinase (ERK) using conformational control” (J Med Chem, 2009).
pKi: −log10 of the molar value. Values after ≈ are worked out from the molar mass of the structure shown.

What was measured:
[1] = molecular target: Dual specificity protein kinase CLK3 (Homo sapiens) (UniProt P49761); conditions: 1 uM
Description: Inhibition of CLK3 at 1 uM

[2] = molecular target: Fibroblast growth factor receptor 1 (Homo sapiens) (UniProt P11362); test: Inhibition of FGFR1 at 1 uM
[3] = Oral bioavailability in rat at 10 mg/kg; format: ADME, organism-based; conditions: in vivo
Aurora kinase A = molecular target: T1, Aurora kinase A (Homo sapiens, UniProt O14965); test: Inhibition of AURA
T1 sequence (O14965 whole entry): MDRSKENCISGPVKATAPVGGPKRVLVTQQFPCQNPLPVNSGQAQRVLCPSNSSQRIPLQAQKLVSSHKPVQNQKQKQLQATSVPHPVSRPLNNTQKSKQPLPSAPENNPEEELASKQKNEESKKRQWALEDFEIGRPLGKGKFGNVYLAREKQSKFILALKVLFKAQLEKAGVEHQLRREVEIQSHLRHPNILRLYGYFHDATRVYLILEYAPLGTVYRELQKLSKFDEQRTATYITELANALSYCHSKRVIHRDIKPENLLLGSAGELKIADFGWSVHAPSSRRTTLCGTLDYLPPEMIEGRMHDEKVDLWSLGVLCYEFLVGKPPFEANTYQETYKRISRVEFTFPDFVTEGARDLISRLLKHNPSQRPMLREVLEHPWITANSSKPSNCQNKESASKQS

[4] = molecular target: Phosphorylase b kinase gamma catalytic chain, liver/testis isoform (Homo sapiens) (UniProt P15735); test: Inhibition of PHKgamma2 at 1 uM
[5] = molecular target: Inhibitor of nuclear factor kappa-B kinase subunit beta (Homo sapiens) (UniProt O14920); conditions: 2 uM
Description: Inhibition of IKK-beta at 2 uM

[6] = Plasma concentration in rat at 10 mg/kg, po after 8 hrs; format: ADME, organism-based; design: dose 10 mg/kg, route oral
[7] = molecular target: Serine/threonine-protein kinase BRSK2 (Homo sapiens) (UniProt Q8IWQ3); test: Inhibition of BRSK2 at 1 uM
Serine/threonine-protein kinase BRSK2 (Homo sapiens), sequence (Q8IWQ3 whole entry): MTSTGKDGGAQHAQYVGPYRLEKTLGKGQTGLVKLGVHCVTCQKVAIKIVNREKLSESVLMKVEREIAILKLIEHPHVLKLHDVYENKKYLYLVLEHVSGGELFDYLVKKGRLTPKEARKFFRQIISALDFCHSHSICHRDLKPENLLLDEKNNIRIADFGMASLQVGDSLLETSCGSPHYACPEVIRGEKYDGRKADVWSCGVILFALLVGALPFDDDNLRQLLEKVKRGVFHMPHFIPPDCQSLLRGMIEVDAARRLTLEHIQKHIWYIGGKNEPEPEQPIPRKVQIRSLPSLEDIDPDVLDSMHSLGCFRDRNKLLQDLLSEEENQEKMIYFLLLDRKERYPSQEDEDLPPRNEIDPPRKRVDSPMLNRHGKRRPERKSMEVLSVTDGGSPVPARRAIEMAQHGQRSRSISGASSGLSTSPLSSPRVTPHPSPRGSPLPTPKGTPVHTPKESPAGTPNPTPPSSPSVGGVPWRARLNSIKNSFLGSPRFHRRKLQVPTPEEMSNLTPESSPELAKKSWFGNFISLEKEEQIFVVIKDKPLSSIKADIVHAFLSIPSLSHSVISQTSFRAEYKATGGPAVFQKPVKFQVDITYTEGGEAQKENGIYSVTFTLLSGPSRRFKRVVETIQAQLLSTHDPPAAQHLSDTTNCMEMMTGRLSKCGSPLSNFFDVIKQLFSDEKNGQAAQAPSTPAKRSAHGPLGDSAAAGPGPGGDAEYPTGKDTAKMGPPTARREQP

[8] = molecular target: Mast/stem cell growth factor receptor Kit (Homo sapiens) (UniProt P10721); test: Inhibition of KIT at 1 uM
Mast/stem cell growth factor receptor Kit (Homo sapiens), sequence (P10721 whole entry): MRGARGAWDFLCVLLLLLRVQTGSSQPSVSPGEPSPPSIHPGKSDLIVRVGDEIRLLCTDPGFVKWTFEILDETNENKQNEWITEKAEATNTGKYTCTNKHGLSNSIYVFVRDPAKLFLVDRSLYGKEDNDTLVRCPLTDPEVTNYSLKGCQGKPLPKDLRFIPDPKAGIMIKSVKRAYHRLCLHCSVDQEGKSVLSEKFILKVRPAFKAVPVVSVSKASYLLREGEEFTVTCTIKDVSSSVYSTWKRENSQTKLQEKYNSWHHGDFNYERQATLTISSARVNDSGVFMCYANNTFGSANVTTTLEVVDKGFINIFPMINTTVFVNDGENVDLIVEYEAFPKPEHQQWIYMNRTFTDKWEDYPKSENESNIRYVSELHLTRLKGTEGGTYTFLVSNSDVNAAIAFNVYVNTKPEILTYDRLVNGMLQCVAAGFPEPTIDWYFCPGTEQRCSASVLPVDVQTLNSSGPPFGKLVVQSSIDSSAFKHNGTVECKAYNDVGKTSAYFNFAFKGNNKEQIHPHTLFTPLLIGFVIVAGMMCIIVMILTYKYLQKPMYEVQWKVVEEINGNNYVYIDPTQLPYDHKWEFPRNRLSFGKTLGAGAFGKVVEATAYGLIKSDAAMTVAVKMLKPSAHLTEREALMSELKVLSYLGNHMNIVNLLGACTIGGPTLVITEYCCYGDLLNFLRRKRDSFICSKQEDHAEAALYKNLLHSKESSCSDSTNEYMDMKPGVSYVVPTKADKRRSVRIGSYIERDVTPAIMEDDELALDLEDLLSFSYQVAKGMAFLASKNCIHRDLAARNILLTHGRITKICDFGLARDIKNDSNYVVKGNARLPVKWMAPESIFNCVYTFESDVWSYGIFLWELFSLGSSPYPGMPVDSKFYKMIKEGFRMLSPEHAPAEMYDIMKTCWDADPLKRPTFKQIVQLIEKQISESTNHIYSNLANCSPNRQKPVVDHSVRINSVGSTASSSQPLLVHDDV

[9] = molecular target: Tyrosine-protein kinase CSK (Homo sapiens) (UniProt P41240); test: Inhibition of CSK at 2 uM
Tyrosine-protein kinase CSK (Homo sapiens), sequence (P41240 2-450 limits assumed): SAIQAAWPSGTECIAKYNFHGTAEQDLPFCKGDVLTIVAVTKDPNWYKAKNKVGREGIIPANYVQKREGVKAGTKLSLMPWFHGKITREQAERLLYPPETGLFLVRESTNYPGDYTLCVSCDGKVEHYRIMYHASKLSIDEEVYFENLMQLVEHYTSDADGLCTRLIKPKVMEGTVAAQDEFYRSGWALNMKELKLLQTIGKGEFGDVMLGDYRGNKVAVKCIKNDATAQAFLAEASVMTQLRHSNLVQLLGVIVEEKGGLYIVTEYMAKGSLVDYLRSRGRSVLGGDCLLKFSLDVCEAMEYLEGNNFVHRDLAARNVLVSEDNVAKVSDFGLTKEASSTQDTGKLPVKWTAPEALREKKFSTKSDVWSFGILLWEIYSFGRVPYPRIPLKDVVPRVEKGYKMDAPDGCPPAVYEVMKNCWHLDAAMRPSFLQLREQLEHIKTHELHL

[10] = molecular target: Insulin receptor (Homo sapiens) (UniProt P06213); test: Inhibition of INSR at 1 uM
Insulin receptor (Homo sapiens), sequence (P06213 28-758 limits assumed): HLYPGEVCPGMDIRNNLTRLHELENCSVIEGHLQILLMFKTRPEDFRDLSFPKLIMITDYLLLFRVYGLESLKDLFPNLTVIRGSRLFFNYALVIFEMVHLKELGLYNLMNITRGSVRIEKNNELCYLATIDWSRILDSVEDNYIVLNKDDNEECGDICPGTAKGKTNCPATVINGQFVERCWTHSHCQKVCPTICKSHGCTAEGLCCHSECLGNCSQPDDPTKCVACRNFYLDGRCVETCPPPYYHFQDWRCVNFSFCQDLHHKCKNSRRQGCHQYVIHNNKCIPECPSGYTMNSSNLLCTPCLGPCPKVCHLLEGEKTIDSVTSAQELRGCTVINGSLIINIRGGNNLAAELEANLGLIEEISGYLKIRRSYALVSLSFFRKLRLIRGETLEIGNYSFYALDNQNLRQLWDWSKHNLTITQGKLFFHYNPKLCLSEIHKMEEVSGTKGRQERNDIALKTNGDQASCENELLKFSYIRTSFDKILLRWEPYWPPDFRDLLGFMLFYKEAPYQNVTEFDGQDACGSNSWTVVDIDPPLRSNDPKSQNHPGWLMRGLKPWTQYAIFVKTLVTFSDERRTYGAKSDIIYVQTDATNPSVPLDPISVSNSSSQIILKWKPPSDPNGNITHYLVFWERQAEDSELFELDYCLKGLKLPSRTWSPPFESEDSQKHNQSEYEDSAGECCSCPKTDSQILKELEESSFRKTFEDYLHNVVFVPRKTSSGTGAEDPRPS
Insulin receptor (Homo sapiens), sequence (P06213 763-1382 limits assumed): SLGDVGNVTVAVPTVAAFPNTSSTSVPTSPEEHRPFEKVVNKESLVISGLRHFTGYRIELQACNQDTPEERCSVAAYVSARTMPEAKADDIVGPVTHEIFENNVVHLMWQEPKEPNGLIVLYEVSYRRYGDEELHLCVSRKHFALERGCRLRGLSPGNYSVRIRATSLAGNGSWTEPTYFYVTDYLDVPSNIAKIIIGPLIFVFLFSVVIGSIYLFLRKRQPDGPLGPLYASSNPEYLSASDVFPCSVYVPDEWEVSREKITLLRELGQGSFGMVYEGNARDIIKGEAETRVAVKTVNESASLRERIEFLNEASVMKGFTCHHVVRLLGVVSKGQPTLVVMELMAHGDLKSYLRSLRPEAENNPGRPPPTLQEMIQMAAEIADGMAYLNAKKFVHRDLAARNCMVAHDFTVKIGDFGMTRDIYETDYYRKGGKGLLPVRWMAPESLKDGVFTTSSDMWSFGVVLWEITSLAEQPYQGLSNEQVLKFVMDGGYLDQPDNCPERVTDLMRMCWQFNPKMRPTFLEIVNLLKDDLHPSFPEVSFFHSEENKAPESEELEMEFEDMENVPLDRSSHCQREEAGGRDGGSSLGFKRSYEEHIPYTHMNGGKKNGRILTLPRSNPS

[11] = molecular target: Macrophage colony-stimulating factor 1 receptor (Homo sapiens) (UniProt P07333); test: Inhibition of FMS at 1 uM
[12] = Clearance in rat at 3 mg/kg, iv; format: ADME, organism-based; design: dose 3 mg/kg, route intravenous; conditions: in vivo
[13] = molecular target: Ephrin type-B receptor 4 (Homo sapiens) (UniProt P54760); test: Inhibition of EPH-B4 at 1 uM
[14] = molecular target: Insulin-like growth factor 1 receptor (Homo sapiens) (UniProt P08069); test: Inhibition of IGF1R at 1 uM
[15] = molecular target: Tyrosine-protein kinase ABL1 (Homo sapiens) (UniProt P00519); test: Inhibition of ABL1 at 1 uM
[16] = molecular target: Testis-specific serine/threonine-protein kinase 2 (Homo sapiens) (UniProt Q96PF2); test: Inhibition of TSSK2 at 1 uM
[17] = Plasma concentration in rat at 3 mg/kg, iv after 8 hrs; format: ADME, organism-based; design: dose 3 mg/kg, route intravenous
[18] = molecular target: Cyclin-dependent kinase 2 (Homo sapiens, UniProt P24941)
[19] = molecular target: Serine/threonine-protein kinase TBK1 (Homo sapiens, UniProt Q9UHD2); test: Inhibition of NAK
[20] = molecular target: Dual specificity mitogen-activated protein kinase kinase 1 (Homo sapiens, UniProt Q02750); test: Inhibition of MEK1
[21] = molecular target: Ribosomal protein S6 kinase alpha-5 (Homo sapiens) (UniProt O75582); test: Inhibition of MSK1 at 1 uM
[22] = molecular target: 5'-AMP-activated protein kinase catalytic subunit alpha-2 (Homo sapiens) (UniProt P54646); test: Inhibition of AMPK at 2 uM
[23] = molecular target: Protein kinase C alpha type (Homo sapiens) (UniProt P17252); test: Inhibition of PKCalpha at 2 uM
[24] = molecular target: Inhibitor of nuclear factor kappa-B kinase subunit alpha (Homo sapiens) (UniProt O15111); conditions: 2 uM
Inhibitor of nuclear factor kappa-B kinase subunit alpha (Homo sapiens), sequence (O15111 whole entry): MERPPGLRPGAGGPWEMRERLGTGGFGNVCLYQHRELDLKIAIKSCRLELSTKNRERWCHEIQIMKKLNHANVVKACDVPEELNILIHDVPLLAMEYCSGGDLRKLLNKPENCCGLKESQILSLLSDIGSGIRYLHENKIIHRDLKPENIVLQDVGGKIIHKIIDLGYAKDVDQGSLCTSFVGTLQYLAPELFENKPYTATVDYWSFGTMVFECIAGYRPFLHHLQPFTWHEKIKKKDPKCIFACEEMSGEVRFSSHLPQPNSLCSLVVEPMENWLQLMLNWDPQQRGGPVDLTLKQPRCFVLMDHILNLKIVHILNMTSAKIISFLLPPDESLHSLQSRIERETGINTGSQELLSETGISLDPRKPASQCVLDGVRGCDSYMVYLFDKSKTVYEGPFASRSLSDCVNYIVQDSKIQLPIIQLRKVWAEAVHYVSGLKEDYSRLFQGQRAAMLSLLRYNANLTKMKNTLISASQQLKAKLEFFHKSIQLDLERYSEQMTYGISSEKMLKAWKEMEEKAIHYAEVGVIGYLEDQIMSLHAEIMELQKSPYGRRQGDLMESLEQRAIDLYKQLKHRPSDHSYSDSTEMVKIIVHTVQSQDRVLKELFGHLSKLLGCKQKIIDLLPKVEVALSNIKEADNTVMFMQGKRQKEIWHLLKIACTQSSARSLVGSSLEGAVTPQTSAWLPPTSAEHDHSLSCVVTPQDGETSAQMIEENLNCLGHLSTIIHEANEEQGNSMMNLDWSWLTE
Description: Inhibition of IKKalpha at 2 uM

[25] = molecular target: Ribosomal protein S6 kinase alpha-1 (Homo sapiens) (UniProt Q15418); test: Inhibition of RSK1 at 1 uM
[26] = molecular target: Tyrosine-protein kinase CSK (Homo sapiens) (UniProt P41240); test: Inhibition of CSK at 1 uM
[27] = molecular target: Serine/threonine-protein kinase D2 (Homo sapiens) (UniProt Q9BZL6); test: Inhibition of PRKD2 at 1 uM
[28] = molecular target: Tyrosine-protein kinase ITK/TSK (Homo sapiens, UniProt Q08881); test: Inhibition of ITK
[29] = molecular target: Fibroblast growth factor receptor 3 (Homo sapiens) (UniProt P22607); test: Inhibition of FGFR3 at 1 uM
[30] = molecular target: RAC-alpha serine/threonine-protein kinase (Homo sapiens) (UniProt P31749); test: Inhibition of AKT1 at 1 uM
[31] = molecular target: Interleukin-1 receptor-associated kinase 1 (Homo sapiens, UniProt P51617); test: Inhibition of IRAK1
Focal adhesion kinase 1 = Focal adhesion kinase 1 (Homo sapiens, UniProt Q05397); test: Inhibition of FAK
[32] = molecular target: Citron Rho-interacting kinase (Homo sapiens, UniProt O14578); test: Inhibition of CIT
[33] = molecular target: Dual specificity mitogen-activated protein kinase kinase 4 (Homo sapiens) (UniProt P45985); test: Inhibition of MKK4 at 2 uM
[34] = Half life in rat at 10 mg/kg, po; format: ADME, organism-based; design: dose 10 mg/kg, route oral; conditions: in vivo
[35] = molecular target: Serine/threonine-protein kinase PAK 1 (Homo sapiens) (UniProt Q13153); test: Inhibition of PAK1 at 1 uM
[36] = molecular target: Hepatocyte growth factor receptor (Homo sapiens, UniProt P08581); test: Inhibition of MET
[37] = Clearance in mouse at 5 mg/kg, iv; format: ADME, organism-based; design: dose 5 mg/kg, route intravenous; conditions: in vivo
[38] = molecular target: Serine/threonine-protein kinase Sgk1 (Homo sapiens) (UniProt O00141); test: Inhibition of SGK1 at 1 uM
[39] = molecular target: Inhibitor of nuclear factor kappa-B kinase subunit epsilon (Homo sapiens, UniProt Q14164); test: Inhibition of IKKi
[40] = Oral bioavailability in mouse at 33 mg/kg; format: ADME, organism-based; conditions: in vivo
[41] = molecular target: Serine/threonine-protein kinase MARK1 (Homo sapiens) (UniProt Q9P0L2); test: Inhibition of MARK1 at 1 uM
[42] = molecular target: Ribosomal protein S6 kinase alpha-4 (Homo sapiens) (UniProt O75676); test: Inhibition of MSK2 at 1 uM
[43] = molecular target: Casein kinase I isoform alpha (Homo sapiens) (UniProt P48729); test: Inhibition of CK1 at 2 uM
[44] = molecular target: Tyrosine-protein kinase BTK (Homo sapiens) (UniProt Q06187); test: Inhibition of BTK at 1 uM
[45] = Inhibition of CK2 at 2 uM
[46] = Solubility in pH 7.4 buffer; format: physicochemical

Dual specificity protein kinase CLK3 (Homo sapiens), sequence (P49761 whole entry, looked up): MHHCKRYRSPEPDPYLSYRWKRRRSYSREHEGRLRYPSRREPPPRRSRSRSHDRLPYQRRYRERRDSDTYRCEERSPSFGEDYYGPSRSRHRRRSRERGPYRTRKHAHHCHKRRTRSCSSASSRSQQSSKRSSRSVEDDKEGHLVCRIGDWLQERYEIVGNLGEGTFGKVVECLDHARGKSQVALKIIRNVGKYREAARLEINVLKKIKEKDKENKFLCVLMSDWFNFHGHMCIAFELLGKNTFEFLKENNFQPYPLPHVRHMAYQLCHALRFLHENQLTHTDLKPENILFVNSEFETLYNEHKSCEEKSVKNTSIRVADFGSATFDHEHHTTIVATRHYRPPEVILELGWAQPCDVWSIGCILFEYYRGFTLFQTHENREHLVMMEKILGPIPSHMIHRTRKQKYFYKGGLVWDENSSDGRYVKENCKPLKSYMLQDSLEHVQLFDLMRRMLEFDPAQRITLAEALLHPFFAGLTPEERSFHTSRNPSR

SMILES: Cc1cnc(Nc2ccc(F)cc2Cl)nc1-c1c[nH]c(C(=O)N[C@H](CO)c2cccc(Cl)c2)c1
- inhibition [1]: 9%
- inhibition [2]: 3%
- bioavailability [3]: 65%
- pKi (Aurora kinase A): 6.27
- inhibition [4]: 4%
- inhibition [5]: 8%
- concentration at 8 h [6]: 267 ng/mL
- inhibition [7]: 2%
- inhibition [8]: 8%
- inhibition [9]: 0%
- inhibition [10]: 4%
- inhibition [11]: 6%
- clearance [12]: 24 mL/min/kg
- inhibition [13]: 0%
- inhibition [14]: 2%
- inhibition [15]: 3%
- inhibition [16]: 3%
- concentration at 8 h [17]: 50 ng/mL
- pKi [18]: 6.07
- pKi [19]: < 5.00
- pKi [20]: < 5.40
- inhibition [21]: 7%
- inhibition [22]: 5%
- inhibition [23]: 12%
- inhibition [24]: 0%
- inhibition [25]: 4%
- inhibition [26]: 3%
- inhibition [27]: 50%
- pKi [28]: < 5.40
- inhibition [29]: 8%
- inhibition [30]: 0%
- pKi [31]: < 5.00
- pKi (Focal adhesion kinase 1): < 5.00
- pKi [32]: < 5.00
- inhibition [33]: 69%
- half-life [34]: 3 h
- inhibition [35]: 3%
- pKi [36]: < 5.40
- clearance [37]: 55 mL/min/kg
- inhibition [38]: 15%
- pKi [39]: < 5.30
- bioavailability [40]: 67%
- inhibition [41]: 12%
- inhibition [42]: 6%
- inhibition [43]: 25%
- inhibition [44]: 5%
- inhibition [45]: 0%
- solubility [46]: 10 µM (≈ 5 µg/mL)
